The text below walks through data of US20110257211A1, “Small-Molecule Choline Kinase Inhibitors as Anti-Cancer Therapeutics” (ADVANCED CANCER THERAPEUTICS, LLC, priority 2010, published 2011).

One series relates to MDA-MB-231. The experiment in a line: Inhibition of cancer cell proliferation, Alamar Blue assay (MDA-MB-231). It counts as cell-based. To be noted: Homo sapiens, Table 2A, Alamar Blue, 72 hours exposure, read-out: IC50s MDA-MB231. Here is the method: (§1) The ability of the compounds described herein to kill or inhibit the proliferation of cancer cells was measured using the Alamar Blue assay using a 72 hours exposure. Results for different cancer cell lines are shown in, the Table 2 below (hematopoietic cell lines U937 and K562; MDA-MB-231 a breast cancer cell line; and NCI-H82 and Calu-6, two lung cancer cell lines): […]
(In general: Resazurin is reduced to fluorescent resorufin, in cell work by metabolically active cells.)

The next series deals with K562. The experiment in a line: Inhibition of cancer cell proliferation, Alamar Blue assay (K562). The series is classed as cell-based. To be noted: Homo sapiens, Table 2A, Alamar Blue, 72 hours exposure, read-out: IC50s K562. On the procedure: as §1
Another series concerns Calu-6. The experiment in a line: Inhibition of cancer cell proliferation, Alamar Blue assay (Calu-6). The series is classed as cell-based. To be noted: Homo sapiens, Table 2A, Alamar Blue, 72 hours exposure, read-out: IC50s Calu-6. Here is the method:
as §1

A further series deals with U937. The experiment in a line: Inhibition of cancer cell proliferation, Alamar Blue assay (U937). To be noted: Homo sapiens, U-937; Table 2A; Alamar Blue, 72 hours exposure; read-out: IC50s U937. The series is classed as cell-based. On the procedure: as §1
A short description of series [1]: Microsomal stability in human liver microsomes. It counts as in vitro ADME. From the text: Microsomal stability in vitro in different biologic media and species is ascertained when screening compounds to evaluate the rate at which a compound undergoes metabolism.
In general terms: Liver microsomes are vesicles of endoplasmic reticulum, rich in cytochrome P450 enzymes.

The subject of another series is NCI-H82. The series can be described thus: Inhibition of cancer cell proliferation, Alamar Blue assay (NCI-H82). It counts as cell-based. To be noted: Homo sapiens, Table 2A, Alamar Blue, 72 hours exposure, read-out: IC50s NCI-H82. Here is the method: as §1

`COc1ccc(-c2nnc(SCC(=O)Nc3c(F)cccc3F)[nH]2)cc1` [ACT-CK-061, N-(2,6-Difluoro-phenyl)-2-[5-(4-methoxy-phenyl)-4H-[1,2,4]triazol-3-ylsulfanyl]-acetamide]: the results for the IC50 in the series on MDA-MB-231 and in the series with K562 were above 100 µM and 28.1 µM, respectively.

Turning to `CCOc1ccc(-c2nnc(SCC(=O)Nc3ccc(F)cc3F)[nH]2)cc1` [ACT-CK-064, N-(2,4-Difluoro-phenyl)-2-[5-(4-ethoxy-phenyl)-4H-[1,2,4]triazol-3-ylsulfanyl]-acetamide], the values for the IC50 in the series with MDA-MB-231 and with K562 were 70.6 µM and 39.5 µM, respectively.

Take `COc1ccc(-c2nnc(SCC(=O)Nc3cc(F)ccc3C)[nH]2)cc1` [ACT-CK-066, N-(5-Fluoro-2-methyl-phenyl)-2-[5-(4-methoxy-phenyl)-4H-[1,2,4]triazol-3-ylsulfanyl]-acetamide]: the IC50 with MDA-MB-231 was 76.2 µM; in the series on K562 it was 11.4 µM.

Turning to `CCOc1ccc(-c2nnc(SCC(=O)Nc3cc(F)ccc3C)[nH]2)cc1` [ACT-CK-067, 2-[5-(4-Ethoxy-phenyl)-4H-[1,2,4]triazol-3-ylsulfanyl]-N-(5-fluoro-2-methyl-phenyl)-acetamide], the IC50 in the series on MDA-MB-231 came out at 19.2 µM; in the series on K562, 1.6 µM.

Regarding `COc1ccc(-c2nnc(SCC(=O)Nc3cccc(C)c3C)[nH]2)cc1` [ACT-CK-070, N-(2,3-Dimethyl-phenyl)-2-[5-(4-methoxy-phenyl)-4H-[1,2,4]triazol-3-ylsulfanyl]-acetamide], the results for the IC50 in the series on MDA-MB-231 and in the series on K562 were 68.2 µM and 32.1 µM, respectively.

Take `CCOc1ccc(-c2nnc(SCC(=O)Nc3cc(C)ccc3F)[nH]2)cc1` [ACT-CK-071, 2-[5-(4-Ethoxy-phenyl)-4H-[1,2,4]triazol-3-ylsulfanyl]-N-(2-fluoro-5-methyl-phenyl)-acetamide]: the IC50 turned out to be 40.2 µM with MDA-MB-231 and 0.81 µM in the series with K562.

Turning to `CCOc1ccc(-c2nnc(SCC(=O)Nc3cccc(C)c3C)[nH]2)cc1` [ACT-CK-076, N-(2,3-Dimethyl-phenyl)-2-[5-(4-ethoxy-phenyl)-4H-[1,2,4]triazol-3-ylsulfanyl]-acetamide], the IC50 with MDA-MB-231 was 21.2 µM; with K562, 14.6 µM.

Take `COc1ccc(-c2nnc(SCC(=O)Nc3cc(C)ccc3F)[nH]2)cc1` [ACT-CK-085, N-(2-Fluoro-5-methyl-phenyl)-2-[5-(4-methoxy-phenyl)-4H-[1,2,4]triazol-3-ylsulfanyl]-acetamide]: the results for the IC50 in the series with MDA-MB-231 and in the series on K562 were 16.3 µM and 4.4 µM, respectively.

In the case of `CCOc1ccc(-c2nnc(SCC(=O)Nc3ccc(OC)cc3C)[nH]2)cc1` [ACT-CK-087, 2-[5-(4-Ethoxy-phenyl)-4H-[1,2,4]triazol-3-ylsulfanyl]-N-(4-methoxy-2-methyl-phenyl)-acetamide], the values for the IC50 in the series with MDA-MB-231 and with K562 were 10.6 µM and 8.86 µM, respectively.

Take `CCOc1ccc(-c2nnc(SCC(=O)Nc3cc(OC)ccc3OC)[nH]2)cc1` [ACT-CK-093, N-(2,5-Dimethoxy-phenyl)-2-[5-(4-ethoxy-phenyl)-4H-[1,2,4]triazol-3-ylsulfanyl]-acetamide]: the IC50 came to 15.7 µM with MDA-MB-231 and 6.16 µM in the series on K562.

As for `COc1ccc(-c2nnc(SCC(=O)Nc3ccc(C)cc3C)[nH]2)cc1` [ACT-CK-096], the IC50 came out at 149 µM in the series on MDA-MB-231 and 34 µM in the series on K562.

Consider `CCOc1ccc(-c2nnc(SCC(=O)Nc3ccc(C)cc3C)[nH]2)cc1` [ACT-CK-097, N-(2,4-Dimethyl-phenyl)-2-[5-(4-ethoxy-phenyl)-4H-[1,2,4]triazol-3-ylsulfanyl]-acetamide], for which the IC50 was 12 µM in the series on MDA-MB-231 and 3.78 µM in the series on K562.

On to `CCCOc1ccc(-c2nnc(SCC(=O)Nc3cc(C)cc(C)c3)[nH]2)cc1` [ACT-CK-118, N-(3,5-Dimethyl-phenyl)-2-[5-(4-propoxy-phenyl)-4H-[1,2,4]triazol-3-ylsulfanyl]-acetamide], for which the IC50 turned out to be 5.6 µM in the series on MDA-MB-231 and 1.4 µM with K562.

In the case of `CCCOc1ccc(-c2nnc(SCC(=O)Nc3cc(OC)cc(OC)c3)[nH]2)cc1` [ACT-CK-119, N-(3,5-Dimethoxy-phenyl)-2-[5-(4-propoxy-phenyl)-4H-[1,2,4]triazol-3-ylsulfanyl]-acetamide], the results for the IC50 in the series on MDA-MB-231 and in the series on K562 were 11 µM and 28 µM, respectively.

`CCCOc1ccc(-c2nnc(SCC(=O)Nc3cc(C)ccc3F)[nH]2)cc1` [ACT-CK-120, N-(2-Fluoro-5-methyl-phenyl)-2-[5-(4-propoxy-phenyl)-4H-[1,2,4]triazol-3-ylsulfanyl]-acetamide]: the IC50 is 9 µM with MDA-MB-231 and 43 µM in the series with K562.

For `Cc1cc(C)cc(NC(=O)CSc2nnc(-c3cc4ccccc4[nH]3)[nH]2)c1` [ACT-CK-124, N-(3,5-Dimethyl-phenyl)-2-[5-(1H-indol-2-yl)-4H-[1,2,4]triazol-3-ylsulfanyl]-acetamide], the IC50 in the series with MDA-MB-231 came to 16 µM; with K562, 23 µM.

Turning to `COc1cccc(-c2nnc(SCC(=O)Nc3cc(C)cc(C)c3)[nH]2)c1` [ACT-CK-140, N-(3,5-Dimethyl-phenyl)-2-[5-(3-methoxy-phenyl)-4H-[1,2,4]triazol-3-ylsulfanyl]-acetamide], the IC50 in the series on MDA-MB-231 was found to be 79 µM; in the series on K562, 41 µM; in the series with Calu-6, 41.6 µM; with U937, 20.4 µM.

For the compound `CCOc1cccc(-c2nnc(SCC(=O)Nc3cc(C)cc(C)c3)[nH]2)c1` [ACT-CK-141, N-(3,5-Dimethyl-phenyl)-2-[5-(3-ethoxy-phenyl)-4H-[1,2,4]triazol-3-ylsulfanyl]-acetamide], the IC50 with MDA-MB-231 was found to be 88 µM; in the series with K562, 39 µM; with Calu-6 it was 43 µM; with U937, 49 µM.

For the compound `CCOc1ccc(-c2nnc(SCC(=O)Nc3cc(C)cc(C)c3)[nH]2)cc1C` [ACT-CK-142, N-(3,5-Dimethyl-phenyl)-2-[5-(4-ethoxy-3-methyl-phenyl)-4H-[1,2,4]triazol-3-ylsulfanyl]-acetamide], the IC50 in the series on MDA-MB-231 was determined as 50 µM; in the series with K562, 0.12 µM; in the series with Calu-6 it was 0.09 µM; in the series with U937, 0.035 µM. Further, in series [1], the “% Metabolized (mean)” value was 99%.

On to `CCOc1ccc(-c2nnc(SCC(=O)Nc3cc(C)cc(C)c3)[nH]2)cn1` [ACT-CK-143, N-(3,5-Dimethyl-phenyl)-2-[5-(6-ethoxy-pyridin-3-yl)-4H-[1,2,4]triazol-3-ylsulfanyl]-acetamide], for which, in series [1], the “% Metabolized (mean)” value was 34%.

Regarding `Cc1cc(C)cc(NC(=O)CSc2nnc(-c3ccc(O)cc3)[nH]2)c1` [ACT-CK-146, N-(3,5-Dimethyl-phenyl)-2-[5-(4-hydroxy-phenyl)-4H-[1,2,4]triazol-3-ylsulfanyl]-acetamide], the IC50 came to 91 µM in the series with MDA-MB-231, 31.7 µM in the series on K562, 54 µM in the series on Calu-6 and 34.1 µM with U937. Further, the “% Metabolized (mean)” value in series [1] came to 85%.

Turning to `CCOc1ccc(-c2nnc(SCC(=O)Nc3cc(C)cc(C)n3)[nH]2)cc1` [ACT-CK-147, N-(4,6-Dimethyl-pyridin-2-yl)-2-[5-(4-ethoxy-phenyl)-4H-[1,2,4]triazol-3-ylsulfanyl]-acetamide], the IC50 in the series on MDA-MB-231 was determined as 53 µM; with K562, 0.97 µM; in the series with Calu-6, 0.74 µM; in the series on U937, 0.63 µM. The “% Metabolized (mean)” value in series [1] is 91%.

Consider `CCOc1ccc(-c2nnc(SCC(=O)Nc3nc(C)cc(C)n3)[nH]2)cc1` [ACT-CK-148, N-(4,6-Dimethyl-pyrimidin-2-yl)-2-[5-(4-ethoxy-phenyl)-4H-[1,2,4]triazol-3-ylsulfanyl]-acetamide], for which the IC50 was determined as 29 µM in the series with MDA-MB-231; 0.72 µM with K562; 8.1 µM in the series on NCI-H82; 0.47 µM in the series on Calu-6; 0.5 µM in the series with U937. Also, in series [1], the “% Metabolized (mean)” value is recorded as 54%.

As for `CCOc1ccc(-c2nnc(SCC(=O)Nc3cc(C)nc(C)c3)[nH]2)cc1` [ACT-CK-151, N-(2,6-Dimethyl-pyridin-4-yl)-2-[5-(4-ethoxy-phenyl)-4H-[1,2,4]triazol-3-ylsulfanyl]-acetamide], in series [1], the “% Metabolized (mean)” value was 91%.

With `CCOc1ccc(-c2nnc(SCC(=O)Nc3cc(C(F)(F)F)cc(C(F)(F)F)c3)[nH]2)cc1` [ACT-CK-152, N-(3,5-Bis-trifluoromethyl-phenyl)-2-[5-(4-ethoxy-phenyl)-4H-[1,2,4]triazol-3-ylsulfanyl]-acetamide], the “% Metabolized (mean)” value in series [1] is given as 47%.

Regarding `Cc1cc(C)cc(NC(=O)CSc2nnc(-c3ccc(OCCO)cc3)[nH]2)c1` [ACT-CK-155, N-(3,5-Dimethyl-phenyl)-2-{5-[4-(2-hydroxy-ethoxy)-phenyl]-4H-[1,2,4]triazol-3-ylsulfanyl}-acetamide], the “% Metabolized (mean)” value in series [1] was found to be 69%.

`CCOc1ccc(-c2nnc(SCC(=O)Nc3cccc(C)c3)[nH]2)cc1` [ACT-CK-156, 2-[5-(4-Ethoxy-phenyl)-4H-[1,2,4]triazol-3-ylsulfanyl]-N-m-tolyl-acetamide]: the IC50 in the series with MDA-MB-231 was determined as 7 µM; in the series on K562 it was 3.27 µM; in the series on NCI-H82 it was 1.7 µM; in the series on Calu-6, 1.7 µM; in the series with U937 it was 1.1 µM.
